Measurements from ChEMBL document CHEMBL4680355, “Staphylococcus aureus resistance to albocycline can be achieved by mutations that alter cellular NAD/PH pools” (Bioorg Med Chem, 2021).
≈ marks a conversion by molar mass, not a printed value.

How the values were obtained:
Staphylococcus aureus [1] = experiment: Antibacterial activity against Staphylococcus aureus UAMS-1 assessed as growth inhibition incubated at 16 to 24 hrs by CLSI method; assay type: functional; settings: time 16-24 hrs
Staphylococcus aureus [2] = experiment: Antibacterial activity against Staphylococcus aureus UAMS-1 AlbR A resistant mutant assessed as growth inhibition incubated at 16 to 24 hrs by CLSI method; assay type: functional; settings: time 16-24 hrs
Staphylococcus aureus [3] = experiment: Antibacterial activity against Staphylococcus aureus UAMS-1 AlbR B resistant mutant assessed as growth inhibition incubated at 16 to 24 hrs by CLSI method; assay type: functional; settings: time 16-24 hrs
Staphylococcus aureus [4] = experiment: Antibacterial activity against Staphylococcus aureus UAMS-1 AlbR C resistant mutant assessed as growth inhibition incubated at 16 to 24 hrs by CLSI method; assay type: functional; settings: time 16-24 hrs
Staphylococcus aureus [5] = experiment: Antibacterial activity against Staphylococcus aureus UAMS-1 AlbR D resistant mutant assessed as growth inhibition incubated at 16 to 24 hrs by CLSI method; assay type: functional; settings: time 16-24 hrs
Staphylococcus aureus [6] = experiment: Antibacterial activity against Staphylococcus aureus USA300 Tn mutant assessed as growth inhibition incubated at 16 to 24 hrs by CLSI method; assay type: functional; settings: time 16-24 hrs
Staphylococcus aureus [7] = experiment: Antibacterial activity against Staphylococcus aureus NE939 Tn mutant assessed as growth inhibition incubated at 16 to 24 hrs by CLSI method; assay type: functional; settings: time 16-24 hrs
Staphylococcus aureus [8] = experiment: Antibacterial activity against Staphylococcus aureus NE1416 Tn mutant assessed as growth inhibition incubated at 16 to 24 hrs by CLSI method; assay type: functional; settings: time 16-24 hrs
Bacterial 70S ribosome [9] = experiment: Binding affinity to Staphylococcus aureus 70S ribosome assessed as dissociation constant by measuring reduction in BODIPY-Erythromycin A binding incubated for 1.5 hr by fluorescence polarization assay; assay type: subcellular
Staphylococcus aureus [10] = experiment: Inhibition of Staphylococcus aureus MurA expressed in Escherichia coli BL21(DE3) assessed as Vmax for DP-G1cNAc to EU- DP-G1cNAc conversion at 50 uM preincubated for 15 mins by HPLC method (reference value: 0.235 +/- 0.049 uM/min)
Staphylococcus aureus [11] = experiment: Inhibition of Staphylococcus aureus MurA expressed in Escherichia coli BL21(DE3) assessed as Vmax for DP-G1cNAc to EU- DP-G1cNAc conversion at 100 uM preincubated for 15 mins by HPLC method (reference value: 0.235 +/- 0.049 uM/min)
Staphylococcus aureus [12] = experiment: Inhibition of Staphylococcus aureus MurA expressed in Escherichia coli BL21(DE3) assessed as Vmax for DP-G1cNAc to EU- DP-G1cNAc conversion at 150 uM preincubated for 15 mins by HPLC method (reference value: 0.235 +/- 0.049 uM/min)
Staphylococcus aureus [13] = experiment: Inhibition of Staphylococcus aureus MurA expressed in Escherichia coli BL21(DE3) assessed as Kcat for DP-G1cNAc to EU- DP-G1cNAc conversion at 50 uM preincubated for 15 mins by HPLC method (reference value: 0.471 +/- 0.994 /min)
Staphylococcus aureus [14] = experiment: Inhibition of Staphylococcus aureus MurA expressed in Escherichia coli BL21(DE3) assessed as Kcat for DP-G1cNAc to EU- DP-G1cNAc conversion at 100 uM preincubated for 15 mins by HPLC method (reference value: 0.471 +/- 0.994 /min)
Staphylococcus aureus [15] = experiment: Inhibition of Staphylococcus aureus MurA expressed in Escherichia coli BL21(DE3) assessed as Kcat for DP-G1cNAc to EU- DP-G1cNAc conversion at 150 uM preincubated for 15 mins by HPLC method (reference value: 0.471 +/- 0.994 /min)
Staphylococcus aureus [16] = experiment: Synergistic antibacterial activity against Staphylococcus aureus UAMS-1 assessed as fractional inhibitory concentration index in presence of fosfomycin by broth microdilution assay; assay type: functional
Staphylococcus aureus [17] = experiment: Synergistic antibacterial activity against Staphylococcus aureus UAMS-1 AlbR A resistant mutant assessed as fractional inhibitory concentration index in presence of fosfomycin by broth microdilution assay; assay type: functional
Staphylococcus aureus [18] = experiment: Synergistic antibacterial activity against Staphylococcus aureus UAMS-1 AlbR B resistant mutant assessed as fractional inhibitory concentration index in presence of fosfomycin by broth microdilution assay; assay type: functional
Staphylococcus aureus [19] = experiment: Synergistic antibacterial activity against Staphylococcus aureus UAMS-1 AlbR C resistant mutant assessed as fractional inhibitory concentration index in presence of fosfomycin by broth microdilution assay; assay type: functional
Staphylococcus aureus [20] = experiment: Synergistic antibacterial activity against Staphylococcus aureus UAMS-1 AlbR D resistant mutant assessed as fractional inhibitory concentration index in presence of fosfomycin by broth microdilution assay; assay type: functional
[21] = Inhibition of Staphylococcus aureus MurA expressed in Escherichia coli BL21(DE3) assessed as using DP-G1cNAc as substrate preincubated for 15 mins by HPLC method
Bacterial 70S ribosome [22] = experiment: Binding affinity to Staphylococcus aureus 70S ribosome assessed as reduction in BODIPY-Erythromycin A binding incubated for 1.5 hr by fluorescence polarization assay; assay type: subcellular

C[C@@H]1O[C@@H]1P(=O)(O)O [FOSFOMYCIN]
MIC (Staphylococcus aureus [1]): 16 mg/L (≈ 116 µM)
MIC (Staphylococcus aureus [2]): 16 mg/L (≈ 116 µM)
MIC (Staphylococcus aureus [3]): 16 mg/L (≈ 116 µM)
MIC (Staphylococcus aureus [4]): 16 mg/L (≈ 116 µM)
MIC (Staphylococcus aureus [5]): 16 mg/L (≈ 116 µM)
MIC (Staphylococcus aureus [6]): 32 mg/L (≈ 232 µM)
MIC (Staphylococcus aureus [7]): 4 mg/L (≈ 29 µM)
MIC (Staphylococcus aureus [8]): 16 mg/L (≈ 116 µM)

CO[C@H]1/C=C/[C@@](C)(O)/C=C/C(=O)O[C@H](C)[C@@H](C)CC/C=C/1C
Kd (Bacterial 70S ribosome [9]): 0.0024 µM
Vmax (Staphylococcus aureus [10]): 0.157 µM/min
Vmax (Staphylococcus aureus [11]): 0.0722 µM/min
Vmax (Staphylococcus aureus [12]): 0.0476 µM/min
kcat (Staphylococcus aureus [13]): 0.00523 s⁻¹
kcat (Staphylococcus aureus [14]): 0.0024 s⁻¹
kcat (Staphylococcus aureus [15]): 0.00159 s⁻¹
MIC (Staphylococcus aureus [1]): 1 mg/L (≈ 3.24 µM)
MIC (Staphylococcus aureus [2]): 512 mg/L (≈ 1660 µM)
MIC (Staphylococcus aureus [3]): 512 mg/L (≈ 1660 µM)
MIC (Staphylococcus aureus [4]): > 1020 mg/L
MIC (Staphylococcus aureus [5]): > 1020 mg/L
MIC (Staphylococcus aureus [6]): 1 mg/L (≈ 3.24 µM)
MIC (Staphylococcus aureus [7]): 1 mg/L (≈ 3.24 µM)
MIC (Staphylococcus aureus [8]): > 256 mg/L
fractional inhibitory concentration index (FICI) (Staphylococcus aureus [16]): 1.004
fractional inhibitory concentration index (FICI) (Staphylococcus aureus [17]): 0.5
fractional inhibitory concentration index (FICI) (Staphylococcus aureus [18]): 0.25
fractional inhibitory concentration index (FICI) (Staphylococcus aureus [19]): 0.25
fractional inhibitory concentration index (FICI) (Staphylococcus aureus [20]): 0.5
Ki [21]: 23.6 µM

CC[C@H]1OC(=O)[C@@](C)(F)C(=O)[C@H](C)[C@@H](O[C@@H]2O[C@H](C)C[C@H](N(C)C)[C@H]2O)[C@](C)(OC)C[C@@H](C)C(=O)[C@H](C)[C@H]2N(CCCCn3cc(-c4cccc(N)c4)nn3)C(=O)O[C@]12C [SOLITHROMYCIN]
Ki (Bacterial 70S ribosome [22]): 0.0603 µM
